Series [1] can be described thus: Assay for solubility in distilled water (turbidity by naked eye). The class given is physicochemical. The note with it: average of three runs; for solubility at 2 min: thermodynamic from solid. The method, then:
The derivatives of the present invention were added to 200 μl of distilled water and then the solution was stirred for 2 minutes. The turbidity of the solution was watched through naked eye.
When the derivatives were not dissolved completely, 50 μl of distilled water was added to the solution and then the turbidity of the solution was assayed in the above manner to find a point of becoming transparent solution.
When 2 mg of the derivatives was first added to distilled water and completely dissolved so that the solution became transparent, 2 mg of the derivatives was added more to the solution and then state of the solution was watched. The derivatives of the present invention were added to the five times and then solubility of the solution was assayed for. The assay for solubility was carried out the three times repeatedly in the above method and the results were averaged.

Series [2] has as its system vancomycin resistant Enterococci (VRE). Description: Assay for in vitro antibacterial activity, agar dilution (VRE). The note with it: Enterococcus, read-out: Minimum Inhibitory Concentration (MIC50) VRE. A general note: In agar dilution the substance is mixed into plates at graded concentrations.
Series [3] concerns methicillin resistant Staphylococcus aureus (MRSA). In words: Assay for in vitro antibacterial activity, agar dilution (MRSA). As to conditions: read-out: Minimum Inhibitory Concentration (MIC50) MRSA.

≈ marks a conversion by molar mass, not a printed value.

As a reminder, the Solubility is the concentration that dissolves in the medium under given conditions. A higher Solubility goes with a readily soluble substance. As a reminder, the solubility is the dissolved amount per volume that the medium holds. Read a high solubility as a readily soluble substance.

With `CC(C)[C@H](N)C(=O)OC[C@H]1CN(c2ccc(-c3ccc(-c4nnn(C)n4)nc3)c(F)c2)C(=O)O1.Cl` [Compound 43, (R)-3-(4-(2-(2-methyltetrazol-5-yl)pyridin-5-yl)-3-fluorophenyl)-5-(L-valyloxy)methyl oxazolidin-2-one hydrochloride], the Solubility in series [1] came to 4.2 mg/mL. In addition, the results for the MIC50 in series [2] and in series [3] were 0.25 µg/mL and 0.5 µg/mL, respectively.

Regarding `C[C@H](N)C(=O)OC[C@H]1CN(c2ccc(-c3ccc(-c4nnn(C)n4)nc3)c(F)c2)C(=O)O1.Cl` [Compound 44, (R)-3-(4-(2-(2-methyltetrazol-5-yl)pyridin-5-yl)-3-fluorophenyl)-5-(L-alanyloxy)methyl oxazolidin-2-one hydrochloride], the solubility at 2 min in series [1] is > 50 mg/mL. Also, the figures for the MIC50 in series [2] and in series [3] were 0.25 µg/mL and 0.5 µg/mL, respectively.

Turning to `Cn1nnc(-c2ccc(-c3ccc(N4C[C@H](COP(=O)([O][Na+])[O][Na+])OC4=O)cc3F)cn2)n1` [Compound 59, (R)-[3-(4-(2-(2-methyltetrazol-5-yl)pyridin-5-yl)-3-fluorophenyl)-2-oxo-5-oxazolidinyl]methyl disodiumphosphate], the solubility at 2 min in series [1] was > 50 mg/mL. Further, the MIC50 in series [2] amounted to 0.25 µg/mL; in series [3] it was 0.5 µg/mL.

As to `Cn1nnnc1-c1ccc(-c2ccc(N3C[C@H](COP(=O)([O-])[O-])OC3=O)cc2F)cn1.[Na+].[Na+]` [Compound 70, (R)-[3-(4-(2-(1-methyltetrazol-5-yl)pyridin-5-yl)-3-fluorophenyl)-2-oxo-5-oxazolidinyl]methyl disodiumphosphate], the solubility at 2 min in series [1] is > 50 mg/mL. The MIC50 stood at 0.25 µg/mL in series [2] and 0.5 µg/mL in series [3].

`Cc1nnc(-c2ccc(-c3ccc(N4C[C@H](COC(=O)CN)OC4=O)cc3F)cn2)o1.Cl` [Compound 48, (R)-3-(4-(2-(2-methyl-[1,3,4]oxadiazol-5-yl)pyridin-5-yl)-3-fluorophenyl)-5-glycyloxymethyl oxazolidin-2-one hydrochloride]: in series [1], the solubility at 2 min was > 50 mg/mL. The MIC50 was determined as 1 µg/mL in series [2] and 0.5 µg/mL in series [3].

In series [1] (trifluoroacetic acid), `Cn1nnc(-c2ccc(-c3ccc(N4C[C@H](COC(=O)CCN)OC4=O)cc3F)cn2)n1` [Compound 49, (R)-3-(4-(2-(2-methyltetrazol-5-yl)pyridin-5-yl)-3-fluorophenyl)-5-(β-alanyloxy)methyl oxazolidin-2-one trifluoroacetic acid] displayed a Solubility of 2.6 mg/mL (≈ 5890 µM). In addition, the MIC50 stood at 0.25 µg/mL (≈ 0.566 µM) in series [2] and 0.5 µg/mL (≈ 1.13 µM) in series [3].

In the case of `Cc1nnc(-c2ccc(-c3ccc(N4C[C@H](COC(=O)[C@H](C)N)OC4=O)cc3F)cn2)o1.Cl` [Compound 52, (R)-3-(4-(2-(2-methyl-[1,3,4]oxadiazol-5-yl)pyridin-5-yl)-3-fluorophenyl)-5-(L-alanyloxy)methyl oxazolidin-2-one hydrochloride], the solubility at 2 min in series [1] was > 50 mg/mL. The MIC50 in series [2] is 1 µg/mL; in series [3], 0.5 µg/mL.

In turn, `Cl.Cn1nnc(-c2ccc(-c3ccc(N4C[C@H](COC(=O)[C@@H]5CCCN5)OC4=O)cc3F)cn2)n1` [Compound 47, (R)-3-(4-(2-(2-methyltetrazol-5-yl)pyridin-5-yl)-3-fluorophenyl)-5-(L-prolinyloxy)methyl oxazolidin-2-one hydrochloride] showed a solubility at 2 min in series [1] of 2 mg/mL. In addition, the MIC50 in series [2] amounted to 0.25 µg/mL; in series [3], 0.5 µg/mL.

As to `Cc1nnc(-c2ccc(-c3ccc(N4C[C@H](COC(=O)[C@@H]5CCCN5)OC4=O)cc3F)cn2)o1.Cl` [Compound 56, (R)-3-(4-(2-(2-methyl-[1,3,4]oxadiazol-5-yl)pyridin-5-yl)-3-fluorophenyl)-5-(L-prolinyloxy)methyl oxazolidin-2-one hydrochloride], the solubility at 2 min in series [1] is > 50 mg/mL. The values for the MIC50 in series [2] and in series [3] were 1 µg/mL and 0.5 µg/mL, respectively.
